Tests used:
[1] = tested on: human diffuse large B lymphoma (TMD-8); test: In-vitro tumor cell proliferation inhibition (CCK-8), TMD-8; conditions: TMD8, 72 h, read-out: Tumor cell proliferation inhibitory activity (IC50, nM) TMD-8
[2] = target: BTK Kinase (Homo sapiens (Human), UniProt Q06187); test: In-vitro Btk kinase inhibitory activity assay; format: biochemical
Description: In-Vitro Btk Kinase Inhibitory Activity Assay for Compounds of the Present Invention:
10 μL of the 50× drug stock solution was added to a 96-well plate and then 90 μL of a 1× Kinase Buffer was added and the 96-well plate was shaken for 10 minutes on a shaker. From each well of the 96-well plate, 5 μL of the drug solution was taken and then transferred to a 384-well plate which was provided with 2 duplicate wells.
Preparation of a 2.5× Kinase Buffer: an enzyme was added to the 1× kinase base buffer.
Prepare a 2.5× oligopeptide solution: FAM-labeled oligopeptide and ATP were added to the 1× kinase base buffer.
10 μL of the 2.5× Kinase Buffer was added to the 384-well plate loaded with 5 μL of the drug solution and incubation was then carried out for 10 minutes at room temperature. 10 μL of the 2.5× oligopeptide solution was added to the 384-well plate and incubation was then carried out for 1 hour at 28° C. The reaction was stopped by adding 25 μL of a stop buffer. The readings were recorded and the inhibition rate of the compound on the enzyme was calculated. The IC50 of BTK kinase was calculated by fitting.

[3] = tested on: human mantle cell lymphoma (MINO); test: In-vitro tumor cell proliferation inhibition (CCK-8), MINO; conditions: 72 h, read-out: Tumor cell proliferation inhibitory activity (IC50, μM) MINO
[4] = target: hERG potassium channel (Homo sapiens (Human), UniProt Q12809); test: hERG potassium channel inhibitory activity, manual patch clamp in CHO cells; format: cell-based; conditions: CHO cells stably expressing hERG, whole-cell patch clamp
Description: The cells used in this experiment were CHO cell lines transfected with HergCdna and stably expressing Herg channels (supplied by Sophion Bioscience, Denmark). The cells were cultured in a medium containing the following components (all from Invitrogen): Ham's F12 medium, 10% (v/v) inactivated fetal bovine serum, 100 μg/ml hygromycin B, 100 μg/ml Geneticin. […] 24 to 48 hours before an electrophysiological experiment, CHO Herg cells were transferred to circular slides placed in the culture dishes and grow with the same culture liquid under the same culture conditions as above. The density of CHO Herg cells on each circular slide was required to reach such a value that most cells were independent and stand alone.
2. Treatment and Dilution of a Compound
Before the test, the compound was first diluted with DMSO at gradient to make stock solutions with concentrations of 10, 3, 1, 0.3 and 0.1 Mm and the stock solutions were then diluted with extracellular fluid to a final Mm test concentration. Except that the DMSO concentration in the 30 Mm compound test solution was 0.3%, the final concentration of DMSO in each of the compound solutions with other concentrations was 0.1%. The test concentration of a positive control Cisapridewas 0.1 Mm. All compound solutions were conventionally sonicated and shaken for 5 to 10 minutes to ensure complete dissolution of the compound.
3. Electrophysiological Recording System and Data Analysis
This experiment uses a manual patch clamp system (HEKA EPC-10 signal amplifier and digital conversion system, purchased from HEKA Electronics, Germany) for the recording of whole cell currents. The circular slides with CHO Herg cells growing on the surfaces were placed in an electrophysiological recording slot under an inverted microscope. The extracellular fluid was used for continuous perfusion in the recording slot (approximately lml per minute). The experimental procedure uses a conventional whole-cell patch clamp current recording technique. Unless otherwise stated, the experiment was carried out at regular room temperature ([…]). The cells were clamped at a voltage of −80 Mv. The cell clamp voltage was depolarized to +20 Mv to activate the Herg potassium channel, and 5 seconds later, it was clamped to −50 Mv to eliminate inactivation and generate tail current. The peak of the tail current was used as the value of the Herg current. After the hERG potassium current recorded in the above step was stabilized under the continuous extracellular fluid perfusion in the recording slot, the drug to be tested can be superimposed to the perfusion until the inhibitory effect of the drug on the hERG current reaches a steady state. Generally, the criterion for determine whether or not the stable state was reached was that the recent three consecutive current recording lines were coincident. After the steady state was reached, extracellular fluid perfusion was carried out for flushing until the hERG current returns to the magnitude before the drug was added. One cell may be used for testing one or more drugs, or multiple concentrations of the same drug, and flushing with extracellular fluid was carried out between tests of different drugs. Cisapride (purchased from Sigma) was used in the experiment as a positive control to ensure that the cells used were of normal quality. The test data was analyzed by data analysis software provided by HEKA Patchmaster, Microsoft Excel and Graphpad Prism.

[5] = tested on: human lung cancer cell (A549); test: In-vitro tumor cell proliferation inhibition (CCK-8), A549; conditions: A549, 72 h, read-out: Tumor cell proliferation inhibitory activity (IC50, μM) A549
[6] = tested on: diffuse giant B-cell lymphoma (OCI-LY10); test: In-vitro tumor cell proliferation inhibition (CCK-8), OCI-LY10; conditions: Homo sapiens, OCI-Ly10, 72 h, read-out: Tumor cell proliferation inhibitory activity (IC50, nM) OCI-LY10
[7] = Oral pharmacokinetic experiment in SD rats; format: in vivo; conditions: mean n = 3
Description: SD rats were used as experimental animals and were subjected to intragastric administration in a dose of 10 mg/kg and tail-vein intravenous injection in a dose of 2 mg/kg. The tail-vein blood sampling time points in the intragastric administration were 0.17, 0.33, 0.5, 1, 1.5, 2, 4, 6, 8, 12, and 24 hours; the blood sampling time points in the intravenous administration were 0.05, 0.1, 0.17, 0.5, 1, 2, 4, 6, 8, 12, and 24 hours. 0.3 ml of whole blood was taken, and 0.1 ml of plasma after centrifugation was taken and analyzed by LC-MS.

[8] = tested on: arthritis induced by anti-collagen antibodies and lipopolysaccharides; test: Rheumatoid arthritis model induced by anti-collagen antibodies and lipopolysaccharides; format: in vivo, Balb/c mice
Description: In Balb/c mice, arthritis was induced by administration of anti-collagen antibodies and lipopolysaccharides (Nandakumar et al., Am. J. Pathol. 2003, 163: 1827-1837).
The specific method was as follows: On Day 0, female Balb/c mice were intravenously injected with anti-type II collagen ChemicomAb mixture in a dose of 100 mg/kg, and on Day 1, lipopolysaccharide was intraperitoneally injected in a dose of 1.25 mg/kg. From Day 2 to Day 12, Compounds 15a, 17a, 24a and 24e were orally administered once a day in a dose of 10 mg/kg. On Day 13 after abdominal anesthesia, […] of blood was taken from the femoral artery and centrifuged at 3000 r/min for 20 minutes, serum was taken to detect IL-1β with a test kit, and related tissue samples were observed.

[9] = tested on: Mino subcutaneous xenograft tumor; test: In-vivo pharmacodynamic study on Mino subcutaneous xenograft tumor models; conditions: CB17 SCID mice, intragastric, twice a day
Description: In CB17 SCID mice, 0.2 mL of cell suspension containing 5×10^6 Mino cells was subcutaneously inoculated into the right back of each mouse, and when the mean tumor volume reaches approximately 139.94 mm3 (day 26 after inoculation), group administration was started (intragastric administration, twice a day, 14 days in total). Animals were monitored daily for health and mortality, and tumor diameters were measured twice a week using vernier calipers to see if tumor growth could be inhibited, delayed, or cured.

[10] = rat, plasma, oral (intragastric) 10 mg/kg

Sequence of BTK Kinase (Q06187 whole entry): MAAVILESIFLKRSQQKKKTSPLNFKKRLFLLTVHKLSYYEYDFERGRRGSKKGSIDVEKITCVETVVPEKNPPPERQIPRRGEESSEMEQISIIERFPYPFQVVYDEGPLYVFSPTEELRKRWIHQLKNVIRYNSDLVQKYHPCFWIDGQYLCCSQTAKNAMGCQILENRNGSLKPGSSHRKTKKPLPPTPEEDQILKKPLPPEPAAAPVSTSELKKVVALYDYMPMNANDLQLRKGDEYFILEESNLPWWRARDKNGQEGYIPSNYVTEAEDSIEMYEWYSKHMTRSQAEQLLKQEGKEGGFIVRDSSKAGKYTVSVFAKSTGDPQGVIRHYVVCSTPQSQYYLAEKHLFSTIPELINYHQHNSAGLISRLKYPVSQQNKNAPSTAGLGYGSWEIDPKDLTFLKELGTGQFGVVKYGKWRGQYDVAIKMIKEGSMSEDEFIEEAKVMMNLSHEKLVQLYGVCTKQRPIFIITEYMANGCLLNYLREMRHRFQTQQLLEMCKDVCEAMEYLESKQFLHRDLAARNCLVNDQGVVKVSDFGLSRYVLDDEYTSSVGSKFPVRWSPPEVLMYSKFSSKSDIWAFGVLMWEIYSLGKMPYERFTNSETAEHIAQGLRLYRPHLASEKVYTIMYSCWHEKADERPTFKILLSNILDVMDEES
Sequence of hERG potassium channel (Q12809 whole entry): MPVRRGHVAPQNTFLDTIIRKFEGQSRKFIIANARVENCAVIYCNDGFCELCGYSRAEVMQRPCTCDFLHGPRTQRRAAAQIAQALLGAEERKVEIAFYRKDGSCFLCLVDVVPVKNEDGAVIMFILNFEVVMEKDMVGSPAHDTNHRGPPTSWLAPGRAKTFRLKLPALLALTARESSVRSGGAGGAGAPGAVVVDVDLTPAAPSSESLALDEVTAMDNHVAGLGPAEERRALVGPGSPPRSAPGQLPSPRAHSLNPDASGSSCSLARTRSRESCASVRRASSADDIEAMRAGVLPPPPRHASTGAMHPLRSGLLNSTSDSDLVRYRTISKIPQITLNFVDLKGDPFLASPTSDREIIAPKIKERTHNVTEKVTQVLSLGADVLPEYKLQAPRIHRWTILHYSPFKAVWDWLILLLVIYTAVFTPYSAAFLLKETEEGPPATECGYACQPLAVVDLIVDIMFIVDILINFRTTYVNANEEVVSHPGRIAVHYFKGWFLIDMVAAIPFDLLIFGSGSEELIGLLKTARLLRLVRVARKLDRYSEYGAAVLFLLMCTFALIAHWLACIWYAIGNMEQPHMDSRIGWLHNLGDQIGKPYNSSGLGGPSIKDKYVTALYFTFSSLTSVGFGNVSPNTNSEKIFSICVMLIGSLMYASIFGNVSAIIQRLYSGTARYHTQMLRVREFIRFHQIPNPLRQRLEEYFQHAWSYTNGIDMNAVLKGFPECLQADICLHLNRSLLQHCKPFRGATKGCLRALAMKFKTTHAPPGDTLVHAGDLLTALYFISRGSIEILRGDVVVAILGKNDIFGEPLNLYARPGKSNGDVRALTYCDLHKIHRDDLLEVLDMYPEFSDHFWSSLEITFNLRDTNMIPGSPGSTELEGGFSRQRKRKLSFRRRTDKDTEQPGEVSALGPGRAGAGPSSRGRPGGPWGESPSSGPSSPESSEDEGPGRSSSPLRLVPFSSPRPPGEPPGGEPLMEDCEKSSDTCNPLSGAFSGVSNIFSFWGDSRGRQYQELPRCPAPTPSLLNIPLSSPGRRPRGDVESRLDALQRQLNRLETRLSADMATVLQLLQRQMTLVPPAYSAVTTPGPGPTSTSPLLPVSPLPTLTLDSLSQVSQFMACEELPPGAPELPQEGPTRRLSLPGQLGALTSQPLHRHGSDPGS

SMILES	IC50 [1] [nM]	IC50 [2] [nM]	IC50 [3] [µM]	IC50 [4] [nM]	IC50 [5] [µM]	IC50 [6] [nM]	AUC0-C(ng/h/mL) ([7]; oral (intragastric) 10 mg/kg) [ng·h/mL]	AUC0-t (ng/h/mL) ([7]; oral (intragastric) 10 mg/kg) [ng·h/mL]	bioavailability ([7]; rat, plasma, oral 10 mg/kg vs intravenous 2 mg/kg) [%]	Cmax [7, 10] [ng/mL]	Tmax [7, 10] [h]	half-life [7, 10] [h]	level of IL-1β in serum (in words) ([8]; 10 mg/kg orally once a day, versus model group)	IL-1β ([8]; serum on Day 13, 10 mg/kg orally once a day Day 2 to Day 12) [ng/L]	inflammatory cell infiltration, synovial hyperplasia, inflammatory granulation tissue formation, necrotic tissue ([8]; tissue samples after treatment, versus model group)	TGI*(14 days) (%) calculated on the basis of tumor volume [9] [%]	TGI**(14 days) (%) calculated on the basis of tumor weight [9] [%]
C=CC(=O)N1CCC[C@@H](n2nc(-c3ccc(Oc4ccccc4)cn3)c3c(N)ncnc32)C1 [Compound 19, (R)-1-(3-(4-amino-3-(5-phenoxypyridin-2-yl)-1H-pyrazolo[3,4-d]pyrimidin-1-yl)piperidin-1-yl)prop-2-en-1-one]	10.2	5.3	7.12	10600	4.52	13.6	–	–	–	–	–	–	–	–	–	–	–
CC#CC(=O)N1CC[C@@H](n2nc(-c3ccc(Oc4ccccc4)nc3)c3c(N)ncnc32)C1 [Compound 25a, (R)-1-(3-(4-amino-3-(6-phenoxypyridin-3-yl)-1H-pyrazolo[3,4-d]pyrimidin-1-yl)pyrrolidin-1-yl)but-2-yn-1-one]	5.18	25.1	6.5	13600	5.3	5.13	–	–	–	–	–	–	–	–	–	–	–
CC/C=C/C(=O)N1CCC[C@@H](n2nc(-c3ccc(Oc4ccccc4)nc3)c3c(N)ncnc32)C1 [Compound 20a, (R)-1-(3-(4-amino-3-(6-phenoxypyridin-3-yl)-1H-pyrazolo[3,4-d]pyrimidin-1-yl)piperidin-1-yl) pent-2-en-1-one]	15.2	18.6	8.92	14800	7.7	12.5	–	–	–	–	–	–	–	–	–	–	–
C=CC(=O)N1CC[C@@H](n2nc(-c3ccc(Oc4ccccc4)nc3)c3c(N)ncnc32)C1 [Compound 23a, (R)-1-(3-(4-amino-3-(6-phenoxypyridin-3-yl)-1H-pyrazolo[3,4-d]pyrimidin-1-yl)pyrrolidin-1-yl)prop-2-en-1-one]	28.3	4.4	9.19	18200	2.83	6.91	–	–	–	–	–	–	–	–	–	–	–
C=CC(=O)N1CCC[C@@H](n2nc(-c3ccc(Oc4ccccc4F)nc3)c3c(N)ncnc32)C1 [Compound 15d, (R)-1-(3-(4-amino-3-(6-(2-fluorophenoxypyridine)-3-yl)-1H-pyrazolo[3,4-d]pyrimidin-1-yl)piperidin-1-yl)prop-2-en-1-one]	3.83	7.5	9.15	–	5.12	5.12	–	–	–	–	–	–	–	–	–	–	–
C=CC(=O)N1CCC[C@@H](n2nc(-c3ccc(Oc4ccc(C)cc4)nc3)c3c(N)ncnc32)C1 [Compound 15i]	4.99	6.5	8.35	13500	8.21	3.19	–	–	–	–	–	–	–	–	–	–	–
C=CC(=O)N1CCC[C@@H](n2nc(-c3ccc(Oc4cccc(F)c4F)nc3F)c3c(N)ncnc32)C1 [Compound 17i, (R)-1-(3-(4-amino-3-(6-(2,3-difluorophenoxy)-2-fluoropyridin-3-yl)-1H-pyrazolo[3,4-d]pyrimidin-1-yl)piperidin-1-yl)prop-2-en-1-one]	3.8	1.2	7.65	–	1.02	2.04	–	–	–	–	–	–	–	–	–	–	–
C=CC(=O)N1CCC[C@@H](n2nc(-c3ccc(Oc4ccc(F)cc4)nc3)c3c(N)ncnc32)C1 [Compound 15b, (R)-1-(3-(4-amino-3-(6-(4-fluorophenoxypyridine)-3-yl)-1H-pyrazolo[3,4-d]pyrimidin-1-yl)piperidin-1-yl)prop-2-en-1-one]	2.37	9.5	8.19	11600	2.88	3.58	–	–	–	–	–	–	–	–	–	–	–
C=CC(=O)N1CC[C@@H](n2nc(-c3ccc(Oc4cccc(F)c4F)nc3F)c3c(N)ncnc32)C1 [Compound 24e, (R)-1-(3-(4-amino-3-(6-(2,3-difluorophenoxy)-2-fluoropyridin-3-yl)-1H-pyrazolo[3,4-d]pyrimidin-1-yl)pyrrolidin-1-yl)prop-2-en-1-one]	7.13	1.8	8.98	–	1.93	4.02	1620	1600	46.1	1440	0.25	3.57	significantly reduce	20.45 ± 5.1	significantly improved	68.04	62.16
